Data from PubChem BioAssay AID248 (DTP/NCI, 2004).
Where “and” joins values, the source holds several entries; their conditions need not be identical. Equal values may be shown once. Inconclusive results and toxic doses are left out. No stated cut-off is given here; in the data, active means T/C of 150% or more; inactive means T/C below 125%.

Test system: L1210 leukemia ip in BDF1 mice, survival T/C
Test: NCI In Vivo Anticancer Drug Screen. Data for tumor model L1210 Leukemia (intraperitoneal) in B6D2F1 (BDF1) mice
Settings: endpoint: mean survival time, higher = longer survival
How it was run: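 Transplanted-tumor mice were given test agent; controls received vehicle only. Survival readings from the two groups were divided (treated over control).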

[1] = dose: 100.0 mg/kg/injection, schedule: Q04DX003 (ip), vehicle: Klucel (hydroxypropylcellulose) (HPC)
[2] = dose: 200.0 mg/kg/injection, schedule: Q04DX003 (ip), vehicle: Klucel (hydroxypropylcellulose) (HPC)

Measured: T/C

O=C(C1C(c2ccccc2)C1c1ccccc1)N(CCO)c1ccccc1 (centres undefined)
inactive: dose: 12.5 mg/kg/injection, schedule: Q04DX002 (ip), vehicle: saline 94 % of control | dose: 25.0 mg/kg/injection, schedule: Q04DX002 (ip), vehicle: saline 106 % of control | dose: 50.0 mg/kg/injection, schedule: Q04DX002 (ip), vehicle: saline 94 % of control

O=C(O)c1cc([N+](=O)[O-])cc([N+](=O)[O-])c1 (tested in a mixture with another compound)
inactive: dose: 3.13 mg/kg/injection, schedule: Q04DX002 (ip), vehicle: saline with Tween-80 100 % of control | dose: 6.25 mg/kg/injection, schedule: Q04DX002 (ip), vehicle: saline with Tween-80 106 % of control | dose: 25.0 mg/kg/injection, schedule: Q04DX002 (ip), vehicle: saline with Tween-80 96 % of control and 100 % of control | dose: 50.0 mg/kg/injection, schedule: Q04DX002 (ip), vehicle: saline with Tween-80 114 % of control

COC1OCCCC1Br (centres undefined)
inactive: dose: 100.0 mg/kg/injection, schedule: Q01DX001 (ip), vehicle: saline 91 % of control | dose: 200.0 mg/kg/injection, schedule: Q01DX001 (ip), vehicle: saline 102 % of control | dose: 400.0 mg/kg/injection, schedule: Q01DX001 (ip), vehicle: saline 107 % of control

COC(=O)c1cc(NC(=O)Nc2cc(C(F)(F)F)ccc2Cl)cc(C(=O)OC)c1
inactive: dose: 100.0 mg/kg/injection, schedule: Q04DX002 (ip), vehicle: Klucel (hydroxypropylcellulose) (HPC) 112 % of control | dose: 200.0 mg/kg/injection, schedule: Q04DX002 (ip), vehicle: Klucel (hydroxypropylcellulose) (HPC) 105 % of control | dose: 400.0 mg/kg/injection, schedule: Q04DX002 (ip), vehicle: Klucel (hydroxypropylcellulose) (HPC) 105 % of control

OC1(C#[C][Hg][C]#CC2(O)CCCCC2)CCCCC1
inactive: [1] 98 % of control | [2] 100 % of control

O=C1CCC(N2C(=O)C3C4C=CC(C4)C3C2=O)C(=O)N1 (centres undefined)
inactive: dose: 100.0 mg/kg/injection, schedule: Q04DX003 (ip), vehicle: saline 101 % of control | dose: 200.0 mg/kg/injection, schedule: Q04DX003 (ip), vehicle: saline 101 % of control | dose: 400.0 mg/kg/injection, schedule: Q04DX003 (ip), vehicle: saline 97 % of control

CCOC(=O)c1cc(C(=O)OC)[nH]c(=O)c1C#N
inactive: dose: 100.0 mg/kg/injection, schedule: Q01DX009 (ip), vehicle: Klucel (hydroxypropylcellulose) (HPC) 93 % of control | [1] 92 % of control | dose: 200.0 mg/kg/injection, schedule: Q01DX009 (ip), vehicle: Klucel (hydroxypropylcellulose) (HPC) 92 % of control | [2] 92 % of control | dose: 400.0 mg/kg/injection, schedule: Q01DX009 (ip), vehicle: Klucel (hydroxypropylcellulose) (HPC) 90 % of control | dose: 400.0 mg/kg/injection, schedule: Q04DX003 (ip), vehicle: Klucel (hydroxypropylcellulose) (HPC) 88 % of control

CCCCCCC1N(Cc2ccccc2N(C)C)CCCN1Cc1ccccc1N(C)C
inactive: dose: 75.0 mg/kg/injection, schedule: Q01DX001 (ip), vehicle: saline 94 % of control | dose: 150.0 mg/kg/injection, schedule: Q01DX001 (ip), vehicle: saline 94 % of control | dose: 300.0 mg/kg/injection, schedule: Q01DX001 (ip), vehicle: saline 89 % of control

Nc1cc(N)c([N+](=O)[O-])cc1[N+](=O)[O-]
inactive: dose: 100.0 mg/kg/injection, schedule: Q01DX009 (ip), vehicle: saline with Tween-80 98 % of control | dose: 200.0 mg/kg/injection, schedule: Q01DX009 (ip), vehicle: saline with Tween-80 93 % of control | dose: 400.0 mg/kg/injection, schedule: Q01DX009 (ip), vehicle: saline with Tween-80 98 % of control

CC1=CC23C(COC(=O)C24CO4)C(C(=O)O)=CC3C1C (centres undefined)
inactive: dose: 10.0 mg/kg/injection, schedule: Q01DX001 (ip), vehicle: saline 96 % of control

[N-]=[N+]=C1N=C(Br)N=C1c1n[nH]c(Br)n1
inactive: dose: 100.0 mg/kg/injection, schedule: Q01DX001 (ip), vehicle: Klucel (hydroxypropylcellulose) (HPC) 98 % of control | dose: 200.0 mg/kg/injection, schedule: Q01DX001 (ip), vehicle: Klucel (hydroxypropylcellulose) (HPC) 109 % of control | dose: 400.0 mg/kg/injection, schedule: Q01DX001 (ip), vehicle: Klucel (hydroxypropylcellulose) (HPC) 102 % of control
